From the Deep4Chem optical property database

Assay: solvent given as SMILES

Cc1ccc2c(c1)C1(c3ccccc3-c3ccccc31)c1cc(C)ccc1N2c1ccc(-c2ncccn2)cc1
emission maximum (in Cc1ccccc1): 461 nm | emission maximum (in O=P(c1ccccc1)(c1ccccc1)c1ccc2oc3ccc(P(=O)(c4ccccc4)c4ccccc4)cc3c2c1): 466 nm

N#Cc1nn(-c2ccc(F)cc2)nc1N1CCCC1
emission maximum (in CC#N): 422 nm

CN(C)CCNc1ccc([N+](=O)[O-])cc1[N+](=O)[O-]
emission maximum (in C1CCCCC1): 368 nm | emission maximum (in C1CCOC1): 389 nm | emission maximum (in C1COCCO1): 385 nm | emission maximum (in CC#N): 399 nm | emission maximum (in CC(C)=O): 401 nm | emission maximum (in CCCCCC): 363 nm | emission maximum (in CCO): 394 nm | emission maximum (in CCOC(C)=O): 384 nm | emission maximum (in CN(C)C=O): 406 nm | emission maximum (in CO): 389 nm | emission maximum (in CS(C)=O): 417 nm | emission maximum (in Cc1ccccc1): 385 nm | emission maximum (in ClC(Cl)Cl): 389 nm | emission maximum (in ClCCl): 393 nm

c1ccc(-c2nc(-c3ccccc3)n3ccccc23)cc1
emission maximum (in C1CCCCC1): 445 nm | emission maximum (in CC#N): 478 nm | emission maximum (in CO): 477 nm | emission maximum (in ClC(Cl)Cl): 454 nm | emission maximum (in ClCCl): 484 nm | emission maximum (in O): 479 nm

O=c1oc2ccccc2c2c1c(=O)oc1cc(O)c3ccccc3c12
emission maximum (in ClCCl): 529 nm

C(=C\c1cc2ccccc2c2ccccc12)/c1cc2ccccc2c2ccccc12
emission maximum (in C1CCOC1): 416 nm

Cc1c(C)n2c(COC(=O)CNC(=O)OC(C)(C)C)c(C)c(=O)n2c1=O
emission maximum (in CCO): 459 nm

CC(C)[Si]1(C(C)C)c2cc(C=C(C#N)C#N)ccc2-c2ccc(N(C)C)cc21
emission maximum (in C1CCCCC1): 509 nm | emission maximum (in CC#N): 694 nm | emission maximum (in CCO): 691 nm | emission maximum (in CCOCC): 584 nm | emission maximum (in CS(C)=O): 714 nm | emission maximum (in ClCCl): 644 nm | emission maximum (in c1ccccc1): 566 nm

C(=C\c1ccc(-c2cccc3ccccc23)s1)/c1ccc(-c2cccc3ccccc23)s1
emission maximum (in ClCCl): 475 nm

COc1ccc(-c2ncc3ccccn23)cc1
emission maximum (in ClC(Cl)Cl): 469 nm

O=C([O-])c1c2ccccc2c(C(=O)[O-])c2ccccc12
emission maximum (in CN(C)C=O): 410 nm

O=c1oc2ccccc2c2c1c(=O)oc1c3ccccc3cc(O)c12
emission maximum (in ClCCl): 533 nm

C[Si]1(c2ccccc2)C(c2ccc3c4ccccc4n(-c4ccccc4)c3c2)=C(c2ccccc2)C(c2ccccc2)=C1c1ccc2c3ccccc3n(-c3ccccc3)c2c1
emission maximum (in C1CCOC1): 525 nm

CN1/C(=C/C=C(/C=C/C2=[N+](C)c3ccccc3C2(C)C)c2cc(F)cc(F)c2)C(C)(C)c2ccccc21
emission maximum (in CCO): 661 nm | emission maximum (in CO): 655 nm | emission maximum (in CS(C)=O): 663 nm | emission maximum (in O): 659 nm

CCCCCCN1C(=O)c2cccc3c(-c4ccc(-c5cc(-c6ccccc6)nn5-c5ccccc5)s4)ccc(c23)C1=O
emission maximum (in ClCCl): 517 nm

Cc1ccc(/C=C(\c2ccccc2)c2nc3ccccc3o2)cc1
emission maximum (in C1CCCCC1): 380 nm | emission maximum (in CO): 385 nm

CCCCCCc1ccc(-n2c3[n+](c4c5ccccc5c5ccccc5c42)[B-](C)(C)c2cc(N(c4ccccc4)c4ccccc4)ccc2-3)cc1
emission maximum (in C1CCOC1): 435 nm | emission maximum (in CC#N): 446 nm | emission maximum (in Cc1ccccc1): 428 nm | emission maximum (in ClCCl): 437 nm

CCCCCCCCOc1ccc2c3cccc4c(OCCCCCCCC)ccc(c5cccc1c52)c43
emission maximum (in C1CCOC1): 468.03 nm | emission maximum (in Cc1ccccc1): 467.99 nm | emission maximum (in ClC(Cl)(Cl)Cl): 471.01 nm | emission maximum (in ClC(Cl)Cl): 471.01 nm | emission maximum (in ClCCl): 469.99 nm | emission maximum (in c1ccncc1): 474.01 nm

CCCCCOc1ccc2c(c1)c1ccc3cccc4c5cc(OC)cc6oc(=O)c2c(c65)c1c34
emission maximum (in C1CCOC1): 454 nm

Cc1ccc(-c2c3ccc([nH]3)c3nc(c(-c4ccc(C#N)cc4)c4ccc([nH]4)c4ccc([nH]4)c(-c4ccc(C)cc4)c4ccc2o4)C=C3)cc1
emission maximum (in C1CCOC1): 730 nm | emission maximum (in Cc1ccccc1): 722 nm | emission maximum (in c1ccccc1): 722 nm

N#Cc1cc2ccccc2oc1=N
emission maximum (in C1CCOC1): 409 nm | emission maximum (in CC#N): 407 nm | emission maximum (in CCOC(C)=O): 410 nm | emission maximum (in CS(C)=O): 406 nm | emission maximum (in ClC(Cl)Cl): 411 nm

C=CCOc1ccc(-c2nc3cc(C(NC(=O)OC(C)(C)C)C(=O)OC)ccc3o2)cc1 (stereo not drawn)
emission maximum (in CC1CCCCC1): 329 nm | emission maximum (in CC#N): 333 nm | emission maximum (in CO): 353 nm

Cc1ccc(C)cc1
emission maximum (in C1CCCCC1): 292.06 nm

F[B-]1(F)Oc2ccccc2-c2cc(-n3c4ccc(-c5ccccc5)cc4c4cc(-c5ccccc5)ccc43)cc[n+]21
emission maximum (in Cc1ccccc1): 471 nm | emission maximum (in O=P(c1ccccc1)(c1ccccc1)c1ccccc1Oc1ccccc1P(=O)(c1ccccc1)c1ccccc1): 496 nm

COc1ccc(/C=C/c2nc(N3CCOCC3)c3c([n+]2[O-])CCCC3)cc1
emission maximum (in ClCCl): 533 nm

CCCCCCCCCc1csc2cc(-c3cc(-c4cc5scc(CCCCCCCCC)c5s4)c4ccc5c(-c6cc7scc(CCCCCCCCC)c7s6)cc(-c6cc7scc(CCCCCCCCC)c7s6)c6ccc3c4c65)sc12
emission maximum (in ClC(Cl)Cl): 490 nm

N#Cc1c(N2CCCCC2)cc(-c2cccc3ccccc23)c2c1C(=O)c1ccccc1-2
emission maximum (in C1CCOC1): 460 nm

Cc1ccc(C2=C3C=CC(=[N+](C)C)C=C3[Si](C)(C)c3cc(N(C)C)ccc32)c(C)c1
emission maximum (in O): 660 nm

CC(=O)[B-]1(C(C)=O)OC(c2ccccc2)=CC(c2ccccc2)=[O+]1
emission maximum (in CC#N): 400 nm | emission maximum (in ClC(Cl)(Cl)Cl): 402 nm

COc1ccc(C2=CC(c3ccccc3)=[N+]3C2=Nc2c(-c4ccc(OC)cc4)cc(-c4ccccc4)n2[B-]3(F)F)cc1
emission maximum (in Cc1ccccc1): 697 nm | emission maximum (in ClC(Cl)Cl): 695 nm

Cn1nc(-c2ccccc2)c2nc3cc(F)ccc3nc21
emission maximum (in C1CCCCC1): 486 nm | emission maximum (in C1CCOC1): 520 nm | emission maximum (in CC#N): 535 nm

CCOC(=O)c1ccccc1-c1c2ccc(=[N+](CC)CC)cc-2oc2c1c(=O)oc1cc3c(cc12)CCCN3C
emission maximum (in CCO): 658 nm | emission maximum (in ClC(Cl)Cl): 647 nm | emission maximum (in O): 666 nm

C[n+]1ccn(CCCCc2ccc3c(c2)c2ccccc2n3-c2cc(C#N)c(C#N)cc2F)c1
emission maximum (in CC#N): 558 nm

Cc1cc(C)c(C2=C3C=C(/C=C/C(=O)OCc4ccccc4)C=[N+]3[B-](F)(F)n3cc(/C=C/C(=O)OCc4ccccc4)cc32)c(C)c1
emission maximum (in ClCCl): 604 nm

O=c1c2ccccc2sc2ccc(-n3c4ccccc4c4ccccc43)cc12
emission maximum (in C1CCOC1): 452.5 nm | emission maximum (in CCCCCC): 436 nm | emission maximum (in Cc1ccccc1): 447.5 nm | emission maximum (in ClC(Cl)Cl): 486.5 nm | emission maximum (in ClCCl): 483.5 nm

CC1(C)c2ccccc2N(c2ccc(B3c4ccccc4Oc4ccccc43)cc2)c2ccccc21
emission maximum (in Cc1ccccc1): 472 nm

CC(C)(C)c1ccc2c(c1)c1cc(C(C)(C)C)ccc1n2-c1ccccc1-c1nccnc1C#N
emission maximum (in Cc1ccccc1): 490 nm | emission maximum (in c1cc(-n2c3ccccc3c3ccccc32)cc(-n2c3ccccc3c3ccccc32)c1): 483 nm

CCCc1c(C(=O)c2ccc3c4c(cccc24)-c2cccc4c2C3CC=C4)c2ccc3cccc4c5cccc6ccc1c(c65)c2c34 (stereo not drawn)
emission maximum (in ClCCl): 526 nm

c1ccc2cc3c(cc2c1)-c1cccc2c1c-3cc1ccccc12
emission maximum (in CCCCCCC): 401 nm

COC(=O)/C=C/c1sc(-c2ccc(N(C)C)s2)c(-c2ccsc2)c1N
emission maximum (in CC#N): 557 nm

CCOC(=O)c1ccc(C2CC(c3cccc4ccccc34)=NN2c2ccc(C#N)cc2)cc1 (stereo not drawn)
emission maximum (in ClCCl): 430 nm

CN1/C(=C/C=C(/C=C/c2sc3ccccc3[n+]2C)c2cccc(C(F)(F)F)c2)Sc2ccccc21
emission maximum (in CCO): 665 nm | emission maximum (in CO): 661 nm | emission maximum (in CS(C)=O): 665 nm | emission maximum (in O): 659 nm

CCCCCCCCCC1(CCCCCCCCC)c2cc(C#Cc3ccc(/C=C/c4ccc(N(CCCCCCCC)CCCCCCCC)cc4)cc3)ccc2-c2ccc(C#Cc3ccc(/C=C/c4ccc(N(CCCCCCCC)CCCCCCCC)cc4)cc3)cc21
emission maximum (in Cc1ccccc1): 464 nm
